Results published in paper PMC11240926, “Integrating In Silico and In Vitro Approaches to Identify Natural Peptides with Selective Cytotoxicity against Cancer Cells” (International Journal of Molecular Sciences, 2024).
Ends that are not written are not given here. Peptide text beside a SMILES is read from it.

Tests used:
cancer cell lines = assay: MTT colorimetric assay, panel of over 30 cancer cell lines; format: cell-based, human; details: 48 h
Protocol: (§1) The culture medium used for the cancer cell lines included 10% fetal bovine serum (Gibco, Grand Island, NY, USA) and 1% penicillin/streptomycin (Gibco) in 5% CO2 at 37 °C. Cells were seeded into 96-well tissue culture plates at a concentration of 1 × 10^4 cells per 200 μL per well and allowed to settle overnight. The cells were then treated with serial dilutions of various ACPs. After 48 h of incubation, cell viability for each line was assessed using the MTT colorimetric assay (Sigma-Aldrich, St. Louis, MO, USA). The peptide preparation and dilution in our anticancer assays are as follows: ACPs (10 mg) were dissolved in 100 μL of DMSO to generate 100 mg/mL stock solutions. These stock solutions were then diluted 100 times with a culture medium to obtain a 1 mg/mL solution. Finally, serial dilutions were prepared in a culture medium containing 1% DMSO to achieve the desired ACP concentrations for the MTT assay.

BT474 cells = format: cell-based, human; details: MTT, 48 h
Protocol: as §1

A431 = format: cell-based, human; details: Skin, MTT assay
Protocol: as §1

A549 = format: cell-based, human; details: Lung, MTT assay
Protocol: as §1

DBTRG brain tumor cells = format: cell-based; details: human
Protocol: as §1

Hs578T = format: cell-based, human; details: Breast, MTT assay
From the text: Supplement ijms-25-06848-s001.zip/IJMS_Supplementary Table S2.xlsx, sheet "Table S2" | column: ACP1; ACP2; ACP3; ACP4; ACP5; ACP6; ACP7; ACP8; ACP9; ACP10; ACP11; ACP12

[1] = tested on: Burkitt lymphoma-derived Daudi cell line; format: cell-based, human; details: MTT, 48 h
Protocol: as §1

[2] = tested on: triple-negative breast cancer cell line MDA-MB-231; format: cell-based, human; details: MDA-MB-231, MTT, 48 h
Protocol: as §1

HepG2 = format: cell-based, human; details: HepG2 liver cancer cells, MTT, 48 h
Protocol: as §1

Mahlavu = format: cell-based, human; details: Mahlavu liver cancer cells, MTT, 48 h
Protocol: as §1

DU145 prostate cancer = format: cell-based, human; details: MTT, 48 h
Protocol: as §1

HT1080 fibrosarcoma = format: cell-based, human; details: MTT, 48 h
Protocol: as §1

SKOV-3 ovarian carcinoma = format: cell-based, human; details: MTT, 48 h
Protocol: as §1

[3] = endometrial and hypopharyngeal cancer cells

Compound: CC[C@H](C)[C@H](NC(=O)[C@H](CS)NC(=O)[C@@H]1CCCN1C(=O)[C@@H](NC(=O)[C@H](Cc1ccccc1)NC(=O)[C@@H](NC(=O)[C@H](CS)NC(=O)[C@H](CO)NC(=O)[C@H](CCC(=O)O)NC(=O)CNC(=O)[C@H](CS)NC(=O)[C@@H]1CCCN1C(=O)[C@@H](NC(=O)[C@@H](NC(=O)CN)C(C)C)[C@@H](C)CC)C(C)C)[C@@H](C)CC)C(=O)N[C@@H](CO)C(=O)N[C@H](C(=O)N[C@@H](CC(C)C)C(=O)N[C@@H](CC(C)C)C(=O)NCC(=O)N[C@@H](CS)C(=O)N[C@@H](CO)C(=O)N[C@@H](CS)C(=O)N[C@@H](CCCCN)C(=O)N[C@@H](CC(N)=O)C(=O)N[C@@H](CCCCN)C(=O)N[C@H](C(=O)N[C@@H](CS)C(=O)N[C@@H](Cc1ccc(O)cc1)C(=O)N[C@@H](CCCNC(=N)N)C(=O)N[C@@H](CC(N)=O)C(=O)O)C(C)C)[C@@H](C)O [ACP6] (H-GVIPCGESCVFIPCISTLLGCSCKNKVCYRN-OH)
- anticancer effects, in words (cancer cell lines; [3]): affected
- anticancer effects, in words (cancer cell lines; liver and breast cancers): notable anticancer effects

Compound: CC[C@H](C)[C@H](NC(=O)[C@@H]1CCCN1C(=O)[C@H](Cc1c[nH]c2ccccc12)NC(=O)[C@H](CO)NC(=O)[C@H](CS)NC(=O)[C@H](CO)NC(=O)[C@H](CS)NC(=O)CNC(=O)[C@@H]1CCCN1C(=O)[C@@H](NC(=O)[C@H](CC(N)=O)NC(=O)[C@H](CS)NC(=O)[C@@H](NC(=O)CNC(=O)CNC(=O)[C@H](Cc1ccccc1)NC(=O)[C@H](CS)NC(=O)[C@@H](NC(=O)[C@H](CCC(=O)O)NC(=O)CNC(=O)[C@H](CS)NC(=O)[C@@H](NC(=O)[C@@H](NC(=O)[C@@H]1CCCN1C(=O)[C@@H](NC(=O)[C@@H](NC(=O)[C@@H](N)CO)C(C)C)[C@@H](C)O)[C@@H](C)CC)C(C)C)[C@@H](C)O)[C@@H](C)O)[C@@H](C)O)C(=O)N[C@@H](CS)C(=O)N[C@H](C(=O)N[C@@H](CCCCN)C(=O)O)[C@@H](C)O [ACP10] (H-SVTPIVCGETCFGGTCNTPGCSCSWPICTK-OH; N-terminus and C-terminus assumed)
- cytotoxicity, in words (BT474 cells): pronounced cytotoxicity

Compound: EQQQQQQPQNRRFRE [ACP11]
- Cytotoxicity against cancer cell line A431 (A431): >1000
- Cytotoxicity against cancer cell line A549 (A549): >1000
- IC50 (DBTRG brain tumor cells): 32.1 µM
- Cytotoxicity against cancer cell line Hs578T (Hs578T): >1000

Compound: FKGGGPYGQGVTRGQDLSGKDF [ACP12]
- Cytotoxicity against cancer cell line A549 (A549): >1000
- anticancer activity, in words [1]: demonstrated anticancer activity
- anticancer activity, in words [2]: demonstrated anticancer activity

Compound: GLLGVLGSVAKHVLPHVVPVIAEHL [ACP9]
- cytotoxicity, in words (HepG2): particularly effective
- cytotoxicity, in words (Mahlavu): particularly effective

Compound: KSCCPNTTGRNIYNTCRFGGGSREVCASLSGCKIISASTCPSYPDK (cysteines drawn unpaired) [ACP7]
- anticancer effects, in words (cancer cell lines; [3]): affected
- anticancer effects, in words (cancer cell lines; liver and breast cancers): notable anticancer effects

Compound: YKQCHKKGGHCFPKEKICIPPSSDFGKMDCRWRWKCCKKGSG (cysteines drawn unpaired) [ACP8]
- selective cytotoxicity, in words (DU145 prostate cancer): selectively targeting
- selective cytotoxicity, in words (HT1080 fibrosarcoma): selectively targeting
- selective cytotoxicity, in words (SKOV-3 ovarian carcinoma): selectively targeting
